Reference: publication PMC3730168, “Thiol Redox Sensitivity of Two Key Enzymes of Heme Biosynthesis and Pentose Phosphate Pathways: Uroporphyrinogen Decarboxylase and Transketolase” (Oxidative Medicine and Cellular Longevity, 2013)

Columns and labels:
Hem12p = target: T1, Hem12p (Saccharomyces cerevisiae, UniProt P32347); experiment: fluorescent labelling with eosin-GSH, eosin absorbance at […] nm; assay type: binding; settings: covalent; labelled compound; excess DiEGSSG
T1 construct: gene HEM12; recombinant, codon-optimised synthetic DNA, C-terminal poly-His tag, E. coli, Ni-Sepharose (Abyntek Biopharma)
T1 sequence (P32347 1-362): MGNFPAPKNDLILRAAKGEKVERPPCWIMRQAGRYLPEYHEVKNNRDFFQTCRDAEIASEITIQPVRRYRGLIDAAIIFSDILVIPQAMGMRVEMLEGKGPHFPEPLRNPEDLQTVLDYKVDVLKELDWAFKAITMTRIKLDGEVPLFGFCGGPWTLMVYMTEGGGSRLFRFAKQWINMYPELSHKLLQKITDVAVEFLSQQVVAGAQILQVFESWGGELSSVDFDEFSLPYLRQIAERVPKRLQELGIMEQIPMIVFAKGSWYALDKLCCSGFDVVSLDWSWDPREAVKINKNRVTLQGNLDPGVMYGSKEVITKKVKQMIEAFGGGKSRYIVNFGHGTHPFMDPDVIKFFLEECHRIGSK

Tkl1p = target: T2, Tkl1p (Saccharomyces cerevisiae, UniProt P23254); experiment: as above; assay type: binding; settings: covalent; labelled compound; excess DiEGSSG
T2 construct: gene TKL1; recombinant, codon-optimised synthetic DNA, C-terminal poly-His tag, E. coli, Ni-Sepharose (Abyntek Biopharma); homodimer
T2 sequence (P23254 1-680): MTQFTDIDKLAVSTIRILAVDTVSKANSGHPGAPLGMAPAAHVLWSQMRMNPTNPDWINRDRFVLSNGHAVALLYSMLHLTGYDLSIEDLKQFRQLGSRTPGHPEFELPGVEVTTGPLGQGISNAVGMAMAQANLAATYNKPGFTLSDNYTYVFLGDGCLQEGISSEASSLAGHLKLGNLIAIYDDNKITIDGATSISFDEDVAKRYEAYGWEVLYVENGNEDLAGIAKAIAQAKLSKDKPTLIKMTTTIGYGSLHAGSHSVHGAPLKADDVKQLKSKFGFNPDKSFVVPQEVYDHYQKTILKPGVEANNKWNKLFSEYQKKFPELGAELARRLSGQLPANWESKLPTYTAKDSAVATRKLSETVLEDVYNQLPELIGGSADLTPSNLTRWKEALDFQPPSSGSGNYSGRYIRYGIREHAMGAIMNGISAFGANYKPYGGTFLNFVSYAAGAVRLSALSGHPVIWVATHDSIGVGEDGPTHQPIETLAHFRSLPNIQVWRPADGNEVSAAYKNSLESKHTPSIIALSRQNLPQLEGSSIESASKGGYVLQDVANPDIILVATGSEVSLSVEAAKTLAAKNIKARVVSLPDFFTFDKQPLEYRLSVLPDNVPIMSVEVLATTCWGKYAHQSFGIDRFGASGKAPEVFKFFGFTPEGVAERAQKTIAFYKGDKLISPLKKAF

## O=C(O)CNC(=O)[C@H](CSSC[C@H](NC(=O)CC[C@H](NC(=S)Nc1ccc(-c2c3cc(Br)c(=O)c(Br)c-3oc3c(Br)c(O)c(Br)cc23)c(C(=O)O)c1)C(=O)O)C(=O)NCC(=O)O)NC(=O)CC[C@H](NC(=S)Nc1ccc(-c2c3cc(Br)c(=O)c(Br)c-3oc3c(Br)c(O)c(Br)cc23)c(C(=O)O)c1)C(=O)O [DiEGSSG, dieosinediglutathione]
Hem12p
  moles of fluorescent glutathione per mole protein: ~ 1.5 mol/mol
Tkl1p
  moles of fluorescent moiety per mole protein: ~ 0.35 mol/mol
